One block for each compound: values may come before it.
Assays:
[1] = test system: synthesis of LTB4 in human whole blood; test: human whole blood LTB4 production inhibition assay; format: cell-based; conditions: calcimycin stimulated, read-out: hWB LTB4 IC50
Protocol: Compounds are additionally tested in a human whole blood assay to determine their ability to inhibit the synthesis of LTB4 in a cellular system. Compounds are combined with heparinized human whole blood and incubated for 15 minutes at 37° C. Calcimycin (20 μM final, prepared in phosphate-buffered saline, pH 7.4) is then added and the mixture is incubated for another 30 minutes at 37° C. The samples are centrifuged for 5 min at low speed (1500×g) and the plasma layer is removed. Plasma LTB4 concentrations are then measured using an antibody-based homogenous time-resolved fluorescence method (CisBio, Bedford, Mass.).

[2] = biological target: T1, recombinant human FLAP protein (Homo sapiens, UniProt P20292); test: FLAP binding assay (Scintillation Proximity Assay, displacement of [125I]L-691,831); conditions: for IC50: read-out: FLAP SPA IC50
T1 construct: made in house; host or cells: Sf9 insect cells (100,000xg membrane fraction used)
T1 sequence (P20292 1-161): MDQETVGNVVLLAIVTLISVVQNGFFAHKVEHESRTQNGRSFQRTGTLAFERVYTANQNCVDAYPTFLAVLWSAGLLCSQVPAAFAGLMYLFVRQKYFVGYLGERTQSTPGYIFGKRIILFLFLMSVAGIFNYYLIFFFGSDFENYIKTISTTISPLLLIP
Protocol: Compounds are assessed for the ability to bind to FLAP in a binding assay that measures compound-specific displacement of an iodinated (^125I) FLAP inhibitor via a Scintillation Proximity Assay format (adapted from S. Charleson et al., Mol. Pharmacol., 1992, 41, 873-879).
Cell pellets produced from sf9 insect cells expressing recombinant human FLAP protein are resuspended in buffer A [15 mM Tris-HCl (pH 7.5), 2 mM MgCl2, 0.3 mM EDTA, 1 mM PMSF]. The cells are lysed with a Dounce homogenizer and the material is centrifuged at 10,000×g for 10 minutes. The supernatant is then collected and centrifuged at 100,000×g for 60 minutes. To prepare membrane protein for an assay, an aliquot of the 100,000×g pellet is resuspended in 1 ml of buffer A, Dounce homogenized, and finally subjected to polytron mixing (30 seconds). Membrane protein (25 μl, 5 μg) is mixed with WGA SPA beads (Amersham) and stirred for 1 h. […] (final concentrations: beads, 200 μg/well; protein, 5 μg/well; [^125I] probe, 0.08 nM/well (17 nCi/well). The plates are shaken for 2 h before reading on a Microbeta plate reader. Non-specific binding is determined by the addition of 10 μM cold L-691,831 compound.

- IC50 [1]: > 5000 nM
- inhibition at 1 µM ([2]; read-out: FLAP SPA inhibition at 1 uM): 30%
Structure (SMILES): Cc1ccc(C)n1-c1ncc(-c2ccc(C(C)(c3noc(-c4cn[nH]c4)n3)C(C)C)cn2)cn1 (centres unmarked) [Example 36, 2-(2,5-dimethyl-1H-pyrrol-1-yl)-5-(5-{3-methyl-2-[5-(1H-pyrazol-4-yl)-1,2,4-oxadiazol-3-yl]butan-2-yl}pyridin-2-yl)pyrimidine]

- IC50 [1]: > 5000 nM
- IC50 [2]: 168 nM
Structure (SMILES): CC(C)[C@@](C)(c1ccc(-c2cnc(N)nc2)nc1)c1noc(-c2cnn(CC(C)(C)O)c2)n1 [Example 37, 1-[4-(3-{(2S)-2-[6-(2-aminopyrimidin-5-yl)pyridin-3-yl]-3-methylbutan-2-yl}-1,2,4-oxadiazol-5-yl)-1H-pyrazol-1-yl]-2-methylpropan-2-ol]

- IC50 [1]: 33 nM
- IC50 [2]: 6.4 nM
Structure (SMILES): CC(C)[C@](C)(c1ccc(-c2cnc(N)nc2)nc1)c1noc(-c2cnn(CC(C)(C)O)c2)n1 [Example 38, 1-[4-(3-{(2R)-2-[6-(2-aminopyrimidin-5-yl)pyridin-3-yl]-3-methylbutan-2-yl}-1,2,4-oxadiazol-5-yl)-1H-pyrazol-1-yl]-2-methylpropan-2-ol]

- IC50 [1]: > 5000 nM
- IC50 [2]: 20.4 nM
Structure (SMILES): CC(C)C(C)(c1ccc(-c2cnc(N)nc2)nc1)c1noc(-c2cnn(CC(C)(C)C(=O)O)c2)n1 (centres unmarked) [Example 39, 3-[4-(3-{2-[6-(2-aminopyrimidin-5-yl)pyridin-3-yl]-3-methylbutan-2-yl}-1,2,4-oxadiazol-5-yl)-1H-pyrazol-1-yl]-2,2-dimethylpropanoic acid]

- IC50 [1]: 100 nM
- IC50 [2]: 7.9 nM
Structure (SMILES): CCNc1cnc(-c2nc([C@](C)(c3ccc(-c4cnc(N)nc4)nc3)C(C)C)no2)cn1 [Example 40, 5-{5-[(2S)-2-{5-[5-(ethylamino)pyrazin-2-yl]-1,2,4-oxadiazol-3-yl}-3-methylbutan-2-yl]pyridin-2-yl}pyrimidin-2-amine]

- IC50 [1]: 34 nM
- IC50 [2]: 1.8 nM
Structure (SMILES): CCNc1cnc(-c2nc([C@@](C)(c3ccc(-c4cnc(N)nc4)nc3)C(C)C)no2)cn1 [Example 41, 5-{5-[(2R)-2-{5-[5-(ethylamino)pyrazin-2-yl]-1,2,4-oxadiazol-3-yl}-3-methylbutan-2-yl]pyridin-2-yl}pyrimidin-2-amine]

- IC50 [1]: 210 nM
- IC50 [2]: 8.3 nM
Structure (SMILES): CCNc1ccc(-c2nc(C(C)(c3ccc(-c4cnc(N)nc4)nc3)C(C)C)no2)nn1 (centres unmarked) [Example 42, 6-(3-{2-[6-(2-aminopyrimidin-5-yl)pyridin-3-yl]-3-methylbutan-2-yl}-1,2,4-oxadiazol-5-yl)-N-ethylpyridazin-3-amine]

- IC50 [1]: 32 nM
- IC50 [2]: 1.2 nM
Structure (SMILES): CC(C)[C@](C)(c1ccc(-c2cnc(N)nc2)nc1)c1noc(-c2cn[nH]c2)n1 [Example 43, 5-(5-{(2R)-3-methyl-2-[5-(1H-pyrazol-4-yl)-1,2,4-oxadiazol-3-yl]butan-2-yl}pyridin-2-yl)pyrimidin-2-amine]

- IC50 [1]: 24 nM
- IC50 [2]: 0.9 nM
Structure (SMILES): CC(C)[C@](C)(c1ccc(-c2cnc(N)nc2)nc1)c1noc(-c2cnn(CC(F)F)c2)n1 [Example 44]

- IC50 [1]: 1400 nM
- IC50 [2]: 141 nM
Structure (SMILES): CC(C)[C@@](C)(c1ccc(-c2cnc(N)nc2)nc1)c1noc(-c2cnn(CC(F)F)c2)n1 [Example 45, 5-{5-[(2S)-2-{5-[1-(2,2-difluoroethyl)-1H-pyrazol-4-yl]-1,2,4-oxadiazol-3-yl}-3-methylbutan-2-yl]pyridin-2-yl}pyrimidin-2-amine]

- IC50 [1]: 98 nM
- IC50 [2]: 5 nM
Structure (SMILES): COCCOCCn1cc(-c2nc([C@@](C)(c3ccc(-c4cnc(N)nc4)nc3)C(C)C)no2)cn1 [Example 46, 5-{5-[(2R)-2-(5-{1-[2-(2-methoxyethoxy)ethyl]-1H-pyrazol-4-yl}-1,2,4-oxadiazol-3-yl)-3-methylbutan-2-yl]pyridin-2-yl}pyrimidin-2-amine]

- IC50 [1]: 2000 nM
- IC50 [2]: 180 nM
Structure (SMILES): COCCOCCn1cc(-c2nc([C@](C)(c3ccc(-c4cnc(N)nc4)nc3)C(C)C)no2)cn1 [Example 47, 5-{5-[(2S)-2-(5-{1-[2-(2-methoxyethoxy)ethyl]-1H-pyrazol-4-yl}-1,2,4-oxadiazol-3-yl)-3-methylbutan-2-yl]pyridin-2-yl}pyrimidin-2-amine]

- IC50 [1]: 20 nM
- IC50 [2]: 2.6 nM
Structure (SMILES): CC(C)[C@](C)(c1ccc(-c2cnc(N)nc2)nc1)c1noc(-c2cnn(CCF)c2)n1 [Example 48, 5-{5-[(2R)-2-{5-[1-(2-fluoroethyl)-1H-pyrazol-4-yl]-1,2,4-oxadiazol-3-yl}-3-methylbutan-2-yl]pyridin-2-yl}pyrimidin-2-amine]

- IC50 [1]: 1100 nM
- IC50 [2]: 80.9 nM
Structure (SMILES): CC(C)[C@@](C)(c1ccc(-c2cnc(N)nc2)nc1)c1noc(-c2cnn(CCF)c2)n1 [Example 49, 5-{5-[(2S)-2-{5-[1-(2-fluoroethyl)-1H-pyrazol-4-yl]-1,2,4-oxadiazol-3-yl}-3-methylbutan-2-yl]pyridin-2-yl}pyrimidin-2-amine]

The next lines start with the compound.

Structure (SMILES): CC(C)C(C)(c1ccc(-c2cnc(N)nc2)nc1)c1noc(NCCO)n1 (centres unmarked) [Example 25, 2-[(3-{2-[6-(2-aminopyrimidin-5-yl)pyridin-3-yl]-3-methylbutan-2-yl}-1,2,4-oxadiazol-5-yl)amino]ethanol]
- IC50 [1]: > 5000 nM
- IC50 [2]: 520 nM

Structure (SMILES): CC(C)C(C)(c1ccc(-c2cnc(N)nc2)nc1)c1noc(N2CCNCC2)n1 (centres unmarked) [Example 26, 5-(5-{3-methyl-2-[5-(piperazin-1-yl)-1,2,4-oxadiazol-3-yl]butan-2-yl}pyridin-2-yl)pyrimidin-2-amine]
- IC50 [1]: 3900 nM
- IC50 [2]: 400 nM

Structure (SMILES): COCCNc1ccc(-c2nc(C(C)(c3ccc(-c4cnc(N)nc4)nc3)C(C)C)no2)nn1 (centres unmarked) [Example 27, 6-(3-{2-[6-(2-aminopyrimidin-5-yl)pyridin-3-yl]-3-methylbutan-2-yl}-1,2,4-oxadiazol-5-yl)-N-(2-methoxyethyl)pyridazin-3-amine]
- IC50 [1]: 71 nM
- IC50 [2]: 7.5 nM

Structure (SMILES): CC(C)n1cc(-c2nc(C(C)(c3ccc(-c4cnc(N)nc4)nc3)C(C)C)no2)cn1 (centres unmarked) [Example 28, 5-[5-(3-methyl-2-{5-[1-(propan-2-yl)-1H-pyrazol-4-yl]-1,2,4-oxadiazol-3-yl}butan-2-yl)pyridin-2-yl]pyrimidin-2-amine]
- IC50 [1]: 72 nM
- IC50 [2]: 3.8 nM

Structure (SMILES): CCn1cc(-c2nc(C(C)(c3ccc(-c4cnc(N)nc4)nc3)C(C)C)no2)cn1 (centres unmarked) [Example 29, 5-(5-{2-[5-(1-ethyl-1H-pyrazol-4-yl)-1,2,4-oxadiazol-3-yl]-3-methylbutan-2-yl}pyridin-2-yl)pyrimidin-2-amine]
- IC50 [1]: 40 nM
- IC50 [2]: 4 nM

Structure (SMILES): COCCOCCn1cc(-c2nc(C(C)(c3ccc(-c4cnc(N)nc4)nc3)C(C)C)no2)cn1 (centres unmarked) [Example 30, 5-{5-[2-(5-{1-[2-(2-methoxyethoxy)ethyl]-1H-pyrazol-4-yl}-1,2,4-oxadiazol-3-yl)-3-methylbutan-2-yl]pyridin-2-yl}pyrimidin-2-amine]
- IC50 [1]: 160 nM
- IC50 [2]: 12 nM

Structure (SMILES): CC(C)[C@](C)(c1ccc(-c2cnc(N)nc2)nc1)c1noc(-c2cnn(C3COC3)c2)n1 [Example 31, 5-{5-[(2R)-3-methyl-2-{5-[1-(oxetan-3-yl)-1H-pyrazol-4-yl]-1,2,4-oxadiazol-3-yl}butan-2-yl]pyridin-2-yl}pyrimidin-2-amine]
- IC50 [1]: 12 nM
- IC50 [2]: 1.4 nM

Structure (SMILES): CC(C)C(C)(c1ccc(-c2cnc(N)nc2)nc1)c1noc(-c2ccc(NCC(C)(C)O)nn2)n1 (centres unmarked) [Example 32, 1-{[6-(3-{2-[6-(2-aminopyrimidin-5-yl)pyridin-3-yl]-3-methylbutan-2-yl}-1,2,4-oxadiazol-5-yl)pyridazin-3-yl]amino}-2-methylpropan-2-ol]
- IC50 [1]: 860 nM
- IC50 [2]: 17.3 nM

Structure (SMILES): CCOC(=O)C(C)(C)Cn1cc(-c2nc(C(C)(c3ccc(-c4cnc(N)nc4)nc3)C(C)C)no2)cn1 (centres unmarked) [Example 33, ethyl 3-[4-(3-{2-[6-(2-aminopyrimidin-5-yl)pyridin-3-yl]-3-methylbutan-2-yl}-1,2,4-oxadiazol-5-yl)-1H-pyrazol-1-yl]-2,2-dimethylpropanoate]
- IC50 [1]: 210 nM
- IC50 [2]: 5.2 nM

Structure (SMILES): CC(C)[C@](C)(c1ccc(-c2cnc(N)nc2)nc1)c1noc(-c2cnn(C(C)(C)CO)c2)n1 [Example 34, 2-[4-(3-{(2R)-2-[6-(2-aminopyrimidin-5-yl)pyridin-3-yl]-3-methylbutan-2-yl}-1,2,4-oxadiazol-5-yl)-1H-pyrazol-1-yl]-2-methylpropan-1-ol]
- IC50 [1]: 94 nM
- IC50 [2]: 6.6 nM

Structure (SMILES): CC(C)[C@@](C)(c1ccc(-c2cnc(N)nc2)nc1)c1noc(-c2cnn(C(C)(C)CO)c2)n1 [Example 35, 2-[4-(3-{(2S)-2-[6-(2-aminopyrimidin-5-yl)pyridin-3-yl]-3-methylbutan-2-yl}-1,2,4-oxadiazol-5-yl)-1H-pyrazol-1-yl]-2-methylpropan-1-ol]
- IC50 [1]: 3200 nM
- IC50 [2]: 210 nM
